PubChem BioAssay (NCI)
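96-well plates; 48 h exposure; 5 concentrations. Endpoints by linear interpolation between flanking doses. Not reached: highest tested concentration assigned. TGI: total growth inhibition.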

Tests used:
Assay in all cases: NCI tumour cell line growth inhibition, 48 h
786-0 renal = test system: 786-0 renal
A498 renal = test system: A498 renal
A549 NSCLC = test system: A549 NSCLC
ACHN renal = test system: ACHN renal
CAKI-1 renal = test system: CAKI-1 renal
CCRF-CEM leukemia = test system: CCRF-CEM leukemia
COLO 205 colon = test system: COLO 205 colon
DLD-1 colon = test system: DLD-1 colon
DMS 114 small cell lung = test system: DMS 114 small cell lung
DMS 273 small cell lung = test system: DMS 273 small cell lung
EKVX NSCLC = test system: EKVX NSCLC
HCC-2998 colon = test system: HCC-2998 colon
HCT-116 colon = test system: HCT-116 colon
HCT-15 colon = test system: HCT-15 colon
HOP-18 NSCLC = test system: HOP-18 NSCLC
HOP-62 NSCLC = test system: HOP-62 NSCLC
HOP-92 NSCLC = test system: HOP-92 NSCLC
HT29 colon = test system: HT29 colon
IGROV1 ovarian = test system: IGROV1 ovarian
K-562 leukemia = test system: K-562 leukemia
KM12 colon = test system: KM12 colon
KM20L2 colon = test system: KM20L2 colon
LOX IMVI melanoma = test system: LOX IMVI melanoma
M14 melanoma = test system: M14 melanoma
M19-MEL melanoma = test system: M19-MEL melanoma
MALME-3M melanoma = test system: MALME-3M melanoma
MOLT-4 leukemia = test system: MOLT-4 leukemia
NCI-H226 lung = test system: NCI-H226 lung
NCI-H23 lung = test system: NCI-H23 lung
NCI-H460 lung = test system: NCI-H460 lung
OVCAR-3 ovarian = test system: OVCAR-3 ovarian
OVCAR-4 ovarian = test system: OVCAR-4 ovarian
OVCAR-5 ovarian = test system: OVCAR-5 ovarian
OVCAR-8 ovarian = test system: OVCAR-8 ovarian
RPMI-8226 leukemia = test system: RPMI-8226 leukemia
RXF-631 renal = test system: RXF-631 renal
SF-268 CNS = test system: SF-268 CNS
SF-295 CNS = test system: SF-295 CNS
SF-539 CNS = test system: SF-539 CNS
SK-MEL-2 melanoma = test system: SK-MEL-2 melanoma
SK-MEL-28 melanoma = test system: SK-MEL-28 melanoma
SK-MEL-5 melanoma = test system: SK-MEL-5 melanoma
SK-OV-3 ovarian = test system: SK-OV-3 ovarian
SN12C renal = test system: SN12C renal
SNB-19 CNS = test system: SNB-19 CNS
SNB-75 CNS = test system: SNB-75 CNS
SNB-78 CNS = test system: SNB-78 CNS
SW-620 colon = test system: SW-620 colon
TK-10 renal = test system: TK-10 renal
UACC-257 melanoma = test system: UACC-257 melanoma
UACC-62 melanoma = test system: UACC-62 melanoma
UO-31 renal = test system: UO-31 renal
XF 498 CNS = test system: XF 498 CNS
HL-60(TB) leukemia = test system: HL-60(TB) leukemia
LXFL 529 NSCLC = test system: LXFL 529 NSCLC
NCI-H522 lung = test system: NCI-H522 lung
RXF 393 renal = test system: RXF 393 renal
SR leukemia = test system: SR leukemia
U251 CNS = test system: U251 CNS

Measured: TGI

COc1ccc(Cc2c(=O)[nH]nc3ccccc23)cc1
not listed: HL-60(TB) leukemia | LXFL 529 NSCLC | NCI-H522 lung | RXF 393 renal | SR leukemia | U251 CNS
> 100 µM: all other assays above

CCOC(=O)Cc1csc(Nc2ccc(OCC)cc2)n1
not listed: CAKI-1 renal | CCRF-CEM leukemia | DMS 273 small cell lung | LOX IMVI melanoma | M14 melanoma | OVCAR-5 ovarian | SK-MEL-5 melanoma | SK-OV-3 ovarian | UACC-62 melanoma
> 100 µM: all other assays above
